Measurements published in US9278982B2, “Targeting human thymidylate kinase induces DNA repair toxicity in malignant tumor cells” (NATIONAL YANG-MING UNIVERSITY, priority 2010, dated 2016).

Key:
[1] = system: various cancer cell lines; experiment: Colony formation assay after YMU1 and doxorubicin; type: cell-based, human; conditions: YMU1 72 h, doxorubicin 0.1 μM 4 h, 14 days of culture
Method: FIG. 16. In vitro and in vivo effect of YMU1 on doxorubicin sensitization. (A) A panel of cell lines were pre-treated with vehicle, YMU1 (compound 21), D6 (ethyl 4-(2-chloroacetyl)piperazine-1-carboxylate) or D7 (compound 28) for 3 days and were exposed to different concentration of doxorubicin for 4 h. […] The enhancement (fold) of doxorubicin sensitivity in each cell line was calculated. Data represent mean±s.d., n=3; each experiment was quadruplex. Inset indicates the IC50 value of doxorubicin in various cell lines. […] Following overnight culture, cells were refreshed with growth medium. After 14 days of culture, colonies were fixed, stained by crystal violet and counted. (C) HCT-116 p53^−/− cells were subcutaneously implanted in the right flank of Balb/c nude mice (each experimental group n=8). Arrow indicated the time of stopping drug treatment. The tumor volume was estimated as described in Methods of the Invention section. (D) After 2 weeks recovered from treatment, mice were sacrificed for tumor weight measurement. Data represent mean±s.e.m; **, P<0.01 by a two-tailed Student's t-test. (E) Ki 67 proliferation marker staining of tumor shown in left panel. Scale bar, 50 μm. (F) Model of doxorubicin sensitization by YMU1 in malignant cancer cells. […]

CL-1-0 = experiment: Doxorubicin sensitization, MTS viability assay; type: cell-based, human; conditions: doxorubicin sensitivity, YMU1 vs vehicle
In short: (§1)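 Doxorubicin IC50 determined by MTS assay 2 days post-treatment. Cells first received TMPK inhibitor for 72 h, then a 4 h exposure to graded doxorubicin; values are means of three experiments, each quadruplicate.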

MCF-10A = experiment: Doxorubicin sensitization, MTS viability assay; type: cell-based, human; conditions: doxorubicin sensitivity, YMU1 vs vehicle
In short: as §1

Capan1 = experiment: Doxorubicin sensitization, MTS viability assay; type: cell-based, human; conditions: doxorubicin sensitivity, YMU1 vs vehicle
In short: as §1

SaoS2 = experiment: Doxorubicin sensitization, MTS viability assay; type: cell-based, human; conditions: doxorubicin sensitivity, YMU1 vs vehicle
In short: as §1

H1299 = experiment: Doxorubicin sensitization, MTS viability assay; type: cell-based, human; conditions: doxorubicin sensitivity, YMU1 vs vehicle
In short: as §1

HREC = experiment: Doxorubicin sensitization, MTS viability assay; type: cell-based, human; conditions: doxorubicin sensitivity, YMU1 vs vehicle
In short: as §1

HMEC = experiment: Doxorubicin sensitization, MTS viability assay; type: cell-based, human; conditions: doxorubicin sensitivity, YMU1 vs vehicle
In short: as §1

H184B5F5/M10 = experiment: Doxorubicin sensitization, MTS viability assay; type: cell-based, human; conditions: doxorubicin sensitivity, YMU1 vs vehicle
In short: as §1

HCT-116p53−/− = experiment: Doxorubicin sensitization, MTS viability assay; type: cell-based, human; conditions: doxorubicin sensitivity, YMU1 vs vehicle
In short: as §1

MDA-MB231 = experiment: Doxorubicin sensitization, MTS viability assay; type: cell-based, human
In short: as §1

HCT-116p53+/+ = experiment: Doxorubicin sensitization, MTS viability assay; type: cell-based, human; conditions: doxorubicin sensitivity, YMU1 vs vehicle
In short: as §1

U2OS = experiment: Doxorubicin sensitization, MTS viability assay; type: cell-based, human; conditions: doxorubicin sensitivity, YMU1 vs vehicle
In short: as §1

HCC1037 = experiment: Doxorubicin sensitization, MTS viability assay; type: cell-based, human; conditions: doxorubicin sensitivity, YMU1 vs vehicle
In short: as §1

IMR-90 = experiment: Doxorubicin sensitization, MTS viability assay; type: cell-based, human; conditions: doxorubicin sensitivity, YMU1 vs vehicle
In short: as §1

dUTPase = molecular target: T1, dUTPase (Homo sapiens, UniProt P33316); experiment: dUTPase activity assay; type: biochemical; conditions: 0.1 μg purified GST-dUTPase, 10 min incubation with YMU1
T1 construct: made in house; host or cells: E. coli JM109 (pGEX-2T-dUTPase (WT))
T1 sequence (P33316 1-164 isoform P33316-2): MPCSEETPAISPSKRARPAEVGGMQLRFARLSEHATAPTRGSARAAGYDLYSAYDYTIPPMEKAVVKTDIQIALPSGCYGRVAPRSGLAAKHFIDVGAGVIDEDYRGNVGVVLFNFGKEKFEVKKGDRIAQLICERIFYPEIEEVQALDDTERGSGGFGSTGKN
Method: FIG. 19. No effect of YMU1 on dUTPase activity. 0.1 μg of purified GST-dUTPase protein was incubated with the indicated concentration of YMU1 for 10 min prior to action using dUTPase activity analysis.
For detecting dUTPase activity, the EnzChek Pyrophosphate Assay kit (Invitrogen) was used for measuring the dUTPase activity following the manufacturer's instruction. […] Reaction mixtures were incubated at 37° C. for 3 minutes. Samples (15 μl each) were added to the reaction mixtures [715 μl dH2O, 50 μl 20× reaction buffer, 200 μl MESG substrate, 1 U purine nucleoside phosphorylase, 0.03 U inorganic pyrophosphatase] and incubated at 22° C. for 45 minutes. The absorbance at 360 nm was measured using an ELISA plate reader.

CCOC(=O)N1CCN(C(=O)Cn2sc3nc(C)cc(C)c3c2=O)CC1 [compound 21, Ethyl 4-(2-(4,6-dimethyl-3-oxoisothiazolo[5,4-b]pyridin-2(3H)-yl)acetyl) piperazine-1-carboxylate]
lethal effects of doxorubicin (colony assay) [1]: markedly enhanced the lethal effects of doxorubicin
Enhancement fold (CL-1-0): 6.0 fold
Enhancement fold (MCF-10A): 1.2 fold
Enhancement fold (Capan1): 1.0 fold
Enhancement fold (SaoS2): 35.1 fold
Enhancement fold (H1299): 12.2 fold
Enhancement fold (HREC): 1.0 fold
Enhancement fold (HMEC): 1.0 fold
Enhancement fold (H184B5F5/M10): 1.7 fold
Enhancement fold (HCT-116p53−/−): 6.8 fold
Enhancement fold (MDA-MB231; MDA-MB231, doxorubicin sensitivity, YMU1 vs vehicle): 31.0 fold
enhancement on doxorubicin sensitization (MDA-MB231; MDA-MB231 cell treatment, compound at 2 μM): 30 fold
Enhancement fold (HCT-116p53+/+): 6.3 fold
Enhancement fold (U2OS): 4.0 fold
Enhancement fold (HCC1037): 0.8 fold
Enhancement fold (IMR-90): 1.0 fold
inhibition of dUTPase (dUTPase): unable to inhibit dUTPase
